This is an account of results in US5593970A, “Heterocyclic anthracycline analogs” (priority 1994, dated 1997).

Read-outs that look alike come from different tables or passages of the source.

Series [1] deals with SKOV3. In words: Microculture tetrazolium assay. It is filed as cell-based. The settings on record: Homo sapiens, SK-OV-3, SKOV3; read-out: IC50.
Series [2] concerns SKVLB. The series can be described thus: Microculture tetrazolium assay. The settings on record: for VLB/OV3: IC50 ratio SKVLB/SKOV3; for IC50: SKVLB, read-out: IC50. It is filed as cell-based.
In series [3] the test system is Leukemia. In words: NCI assay, average per cancer type. The settings on record: for CC50: 48 h, read-out: Average LOG10 LC50; for GI50: read-out: Average LOG10 GI50.
For series [4], the system named is NSC Lung. In words: NCI assay, average per cancer type. The settings on record: Homo sapiens; for CC50: 48 h, read-out: Average LOG10 LC50; for GI50: read-out: Average LOG10 GI50.
Series [5] deals with SC Lung. In words: NCI assay, average per cancer type. The settings on record: Homo sapiens; for CC50: 48 h, read-out: Average LOG10 LC50; for GI50: read-out: Average LOG10 GI50.
Series [6] has as its system Colon. In words: NCI assay, average per cancer type. The settings on record: Homo sapiens; for CC50: 48 h, read-out: Average LOG10 LC50; for GI50: read-out: Average LOG10 GI50.
The subject of series [7] is CNS. The series can be described thus: NCI assay, average per cancer type. The settings on record: Homo sapiens; for CC50: 48 h, read-out: Average LOG10 LC50; for GI50: read-out: Average LOG10 GI50.
Series [8] concerns Melanoma. The series can be described thus: NCI assay, average per cancer type. The settings on record: Homo sapiens; for CC50: read-out: Average LOG10 LC50; for GI50: read-out: Average LOG10 GI50.
Series [9] relates to Ovarian. In words: NCI assay, average per cancer type. The settings on record: Homo sapiens; for CC50: 48 h, read-out: Average LOG10 LC50; for GI50: read-out: Average LOG10 GI50.
In series [10] the test system is Renal. In words: NCI assay, average per cancer type. The settings on record: Homo sapiens; for CC50: 48 h, read-out: Average LOG10 LC50; for GI50: read-out: Average LOG10 GI50.
The test system of series [11] is solid tumors. The series can be described thus: NCI assay, mean potency in solid tumors. The settings on record: Homo sapiens; for GI50: read-out: Average LOG10 GI50, Mean Potency in solid tumors; for CC50: 48 h, read-out: Average LOG10 LC50, Mean Potency in solid tumors.
The test system of series [12] is tumor cell lines. The series can be described thus: NCI sulforhodamine B assay, all cell lines. Particulars: for CC50 / IC100 / GI50: Homo sapiens; for CC50 / IC100: 48 h; for CC50: read-out: Log10 LC50, Mean / MG-MID, all cell lines (converted); for IC100: read-out: Log10 TGI, Mean / MG-MID, all cell lines; for GI50: read-out: Log10 GI50, Mean / MG-MID, all cell lines (converted).

The subject of series [13] is T47D. In words: Microculture tetrazolium assay. Type of series: cell-based. Particulars: Homo sapiens, read-out: IC50.
Series [14] deals with LOX. In words: Microculture tetrazolium assay. It is filed as cell-based.
In series [15] the test system is HT29. In words: Microculture tetrazolium assay. It is filed as cell-based. The settings on record: Homo sapiens, HT-29, HT29; read-out: IC50.

As for `CCOC(=O)C1CC2=C(C(=O)c3c(c(O)c4ccccc4c3OC)C2=O)C(O[C@H]2C[C@H](NC(=O)C(F)(F)F)[C@H](O)[C@H](C)O2)O1` (mixture of isomers) [BCH-689, (1'S,1R,3S) and (1'S,1S,3R) Ethyl (6-hydroxy-11-methoxy-5,12-dioxo-1-(3,-trifluoroacetamido-1-daunosaminyl)-3,4,5,12-tetrahydroanthraceno[2,3-c]pyran-3-yl)formate], the IC50 in series [1] is 3.79 µM; in series [2] it was 4.02 µM. Besides, the VLB/OV3 in series [2] is 1.06. Besides, the CC50 in [3] is < 100 µM; in series [4] it was 41.7 µM; in series [5] it was 42.7 µM; in series [6], 38.9 µM; in series [7], 40.7 µM; in series [8] (48 h) it was 41.7 µM. In addition, the CC50 in series [9] is 42.7 µM; in [10] it was 37.2 µM; in series [12] it was 45.7 µM. Further, the GI50 was 15.5 µM in [3]; 13.5 µM in series [4]; 11.5 µM in [5]; 11.2 µM in series [6]; 12.9 µM in [7]; 12.6 µM in series [8]. Further, the GI50 is 11.5 µM in series [9], 11.2 µM in series [10], 12 µM in [11] and 12.6 µM in series [12]. The IC100 in series [12] was 26.3 µM.
Regarding `CCOC(=O)[C@@H]1CC2=C(C(=O)c3c(cc4ccccc4c3OC(C)=O)C2=O)[C@@H](O)O1` (relative stereo) [BCH-657, Ethyl[1-hydroxy-11-acetoxy-5,12-dioxo-3,4-5,12-tetrahydroanthraceno(2,3-C)pyran-3-yl]formate], the IC50 in series [1] was 6.8 µM; in series [2], 6.75 µM; in series [13], 13.1 µM; in [14], 9.3 µM; in series [15] it was 2.28 µM. In addition, the VLB/OV3 in series [2] was 0.99. In addition, the CC50 in [3] is > 100 µM; in [4] it was 11.5 µM; in [5], > 100 µM; in series [6], 13.5 µM; in series [7] it was 13.2 µM; in series [9], 17.4 µM. For the same compound, the results for the CC50 in [10] and in series [12] were 12 µM and 26.3 µM, respectively. In addition, the GI50 was 0.437 µM in [3]; 1.12 µM in series [4]; 1.26 µM in [5]; 0.794 µM in series [6]; 1.86 µM in series [7]; 1.35 µM in series [8]. The GI50 in [9] is 1.7 µM; in series [10], 1.32 µM; in series [11], 1.29 µM; in series [12], 1.17 µM. In addition, the “antiproliferative and cytotoxic activity in words” value in [12] was “strong antiproliferative (GI50) and potent cytotoxic (LC50) activities”. Moreover, the IC100 in [12] is 4.07 µM.
Regarding `CCOC(=O)C1Cc2c(O)c3c(c(O)c2CO1)C(=O)c1ccccc1C3=O` (stereo not drawn) [BCH-650], the IC50 came to 100 µM in series [1]; 100 µM in series [2]; 100 µM in series [13]; 100 µM in [14] (read-out: IC50); 91.1 µM in series [15]. The CC50 in [3], in series [4], in [5], in series [6], in [7] and in series [8] (48 h) was > 100 µM each time. In addition, the CC50 was > 100 µM in series [9], > 100 µM in series [10], > 100 µM in series [11] and 100 µM in [12]. Moreover, the GI50 was 61.7 µM in [3]; > 100 µM in [4]; > 100 µM in [5]; > 100 µM in [6]; 45.7 µM in series [7]; > 100 µM in [8] (48 h). Also, the GI50 in series [9] was > 100 µM; in series [10], 52.5 µM; in [11], 52.5 µM; in series [12], 79.4 µM. In addition, the IC100 in [12] was 100 µM.
Take `COC(=O)[C@@H]1CC2=C(C(=O)c3cc4ccccc4cc3C2=O)[C@@H](O[C@H]2C[C@H](NC(=O)C(F)(F)F)[C@H](O)[C@H](C)O2)O1` [BCH-671]: the IC50 turned out to be 4.69 µM in series [1]; 6.19 µM in series [2]; 2.86 µM in series [13]; 2.61 µM in [14] (read-out: IC50); 4.23 µM in series [15]. Moreover, in [2], the VLB/OV3 is listed as 1.32. Further, the CC50 in [3] is > 100 µM; in series [4] it was 30.2 µM; in series [5] it was 55 µM; in [6] it was 15.8 µM; in series [7] it was 42.7 µM; in series [8] (48 h), 21.4 µM. Besides, the CC50 in series [9] was 33.9 µM; in series [10], 23.4 µM; in series [11], 29.5 µM; in series [12], 29.5 µM. In addition, the GI50 in [3] is 1.82 µM; in series [4], 4.57 µM; in series [5], 2.51 µM; in [6], 1.91 µM; in series [7] it was 4.27 µM; in [8], 2.09 µM. For the same compound, the GI50 in series [9] is 3.63 µM; in [10], 2.82 µM; in [11], 2.95 µM; in series [12], 2.88 µM. Besides, in [12], the IC100 is 7.76 µM.
Take `COC(=O)[C@@H]1CC2=C(C(=O)c3cc4ccccc4cc3C2=O)[C@H](O[C@H]2C[C@H](NC(=O)C(F)(F)F)[C@H](O)[C@H](C)O2)O1` [BCH-672]: the CC50 is 42.7 µM in series [3]; 27.5 µM in series [4]; 39.8 µM in series [5]; 28.2 µM in series [6]; 31.6 µM in series [7]; 21.4 µM in series [8] (48 h). For the same compound, the CC50 is 25.7 µM in series [9], 24 µM in [10], 27.5 µM in series [11] and 26.9 µM in series [12]. Besides, the GI50 in [3] was 1.29 µM; in series [4] it was 3.55 µM; in series [5], 2.04 µM; in series [6] it was 1.66 µM; in series [7] it was 4.68 µM; in [8], 1.55 µM. The GI50 in series [9] was 3.16 µM; in series [10], 4.17 µM; in series [11], 2.75 µM; in [12], 2.63 µM. Further, the IC100 in series [12] was 7.94 µM.
Consider `CCOC(=O)[C@@H]1CC2=C(C(=O)c3c(cc4ccccc4c3O)C2=O)[C@@H](O[C@H]2C[C@H](NC(=O)C(F)(F)F)[C@H](O)[C@H](C)O2)O1` [BCH-673], for which the CC50 in series [3] is > 100 µM; in series [4] it was 21.9 µM; in [5], 36.3 µM; in [6], 34.7 µM; in series [7] it was 26.9 µM; in series [8] (48 h), 13.5 µM. Also, the CC50 is 21.9 µM in [9], 11 µM in series [10], 21.9 µM in series [11] and 20.9 µM in series [12]. Further, the GI50 was 1.07 µM in [3]; 1.74 µM in series [4]; 1.82 µM in [5]; 0.794 µM in series [6]; 2.24 µM in series [7]; 1.48 µM in series [8]. Moreover, the GI50 in series [9] is 1.55 µM; in [10], 1.58 µM; in [11], 1.55 µM; in series [12], 1.48 µM. In addition, the IC100 in [12] is 4.47 µM.
Turning to `COC(=O)[C@@H]1CC2=C(C(=O)c3cc4ccccc4c(O)c3C2=O)[C@@H](O[C@H]2C[C@H](NC(=O)C(F)(F)F)[C@H](O)[C@H](C)O2)O1` [BCH-683], the CC50 is < 100 µM in series [3]; 28.2 µM in series [4]; 8.32 µM in [5]; 10.5 µM in series [6]; 31.6 µM in series [7]; 7.08 µM in series [8] (48 h). In addition, the CC50 in series [9] is 15.8 µM; in series [10], 26.3 µM; in series [11], 15.5 µM; in series [12] it was 21.9 µM. The GI50 is 1.82 µM in [3]; 3.02 µM in series [4]; 1.86 µM in series [5]; 1.29 µM in series [6]; 3.39 µM in series [7]; 1.12 µM in series [8]. Further, the GI50 is 2.09 µM in series [9], 3.16 µM in series [10], 2.09 µM in [11] and 2.14 µM in series [12]. Also, the IC100 in [12] was 5.75 µM.
